Experimental data as given in patent US20200352905A1, “6-(2,4-DICHLOROPHENYL)-5-[4-[(3S)-1-(3-FLUOROPROPYL)PYRROLIDIN-3-YL]OXYPHENYL]-8,9-DIHYDRO-7H-BENZO[7]ANNULENE-2-CARBOXYLIC ACID FOR USE IN METASTATIC OR ADVANCED BREAST CANCER PATIENTS” (SANOFI, priority 2019, published 2020).
Read-outs that look alike come from different tables or passages of the source.

Experiments:
[1] = system: ER-positive and HER2-negative advanced breast cancer; experiment: TED14856 Part B: antitumor activity per RECIST v1.1 by Independent Central Review
Protocol: ORR: antitumor activity as documented by tumor response (CR or PR) defined by RECIST v1.1 determined by Independent Central Review (ICR).
The signal extinction between baseline and on study treatment ^18FES-PET scans constitute the PD readout of the ER engagement. No ^18FES-PET or FDG PET/CT imaging is performed in Part B.
Patients with an early progression as per RECIST v1.1 or who died from disease progression are evaluable for response.

[2] = TED14856 Part A: plasma pharmacokinetics of compound (1); format: in vivo, human

O=C(O)c1ccc2c(c1)CCCC(c1ccc(Cl)cc1Cl)=C2c1ccc(O[C@H]2CCN(CCCF)C2)cc1 [compound (1), 6-(2,4-dichlorophenyl)-5-[4-[(3S)-1-(3-fluoropropyl)pyrrolidin-3-yl]oxyphenyl]-8,9-dihydro-7H-benzo[7]annulene-2-carboxylic acid]
Complete Response (CR) ([1]; 400 mg, N=46, by ICR): 0 n
Clinical Benefit Rate (CBR) assessed by ICR ([1]; ESR1 mutated patients (3/19)): 15.8%
Clinical Benefit Rate (CBR) assessed by ICR ([1]; patients with wild-type ESR1 (9/26)): 34.6%
variability of exposure parameters (average CV) ([2]; after repeated administrations): ~45%
total variability of exposure parameters (average CV) ([2]; after single dose administration): > 60%
Cmax ([2]; female, human, plasma, oral, 20 mg, single 20 mg, Cycle1 Day 1, fasted, N=3, read-out: Cmax (Mean ± SD)): 187 ± 46.7 ng/mL
Cmax ([2]; female, human, plasma, oral, 150 mg, single 150 mg, Cycle1 Day 1, fasted, N=3, read-out: Cmax (Mean ± SD)): 1310 ± 1380 ng/mL
Cmax ([2]; female, human, plasma, oral, 200 mg, single 200 mg, Cycle1 Day 1, fasted, N=4, read-out: Cmax (Mean ± SD)): 1650 ± 1340 ng/mL
Cmax ([2]; female, human, plasma, oral, 400 mg, single 400 mg, Cycle1 Day 1, fasted, N=3, read-out: Cmax (Mean ± SD)): 4740 ± 2920 ng/mL
Tmax ([2]; female, human, plasma, oral, 20 to 600 mg once a day, fasting, Day 1 and Day 22 Cycle 1, read-out: median time to achieve maximum concentration (tmax)): ~3 h
clearance ([2]; female, human, plasma, oral, across the 20-600 mg range, read-out: mean apparent systemic clearance): 233 to 250 mL/min
Vd ([2]; female, human, plasma, oral, across the 20-600 mg range, read-out: mean apparent volume of distribution): ~120 L
half-life ([2]; female, human, plasma, oral, estimated over 48 hours after a single dose on Day 1, read-out: mean apparent terminal half-life): ≥ 8 h
AUC(0-t) ([2]; human, plasma, oral, 20 mg, repeated 20 mg once daily, Cycle1 Day 22, fasted, N=3, read-out: AUC0-24 (Geometric Mean)): 1350 ng·h/mL
AUC(0-t) ([2]; human, plasma, oral, 20 mg, repeated 20 mg once daily, Cycle1 Day 22, fasted, N=3, read-out: AUC0-24 (Mean ± SD)): 1630 ± 1120 ng·h/mL
Cmax ([2]; human, plasma, oral, 20 mg, repeated 20 mg once daily, Cycle1 Day 22, fasted, N=3, read-out: Cmax (Geometric Mean)): 203 ng/mL
Cmax ([2]; human, plasma, oral, 20 mg, repeated 20 mg once daily, Cycle1 Day 22, fasted, N=3, read-out: Cmax (Mean ± SD)): 218 ± 95.3 ng/mL
Tmax ([2]; human, plasma, oral, 20 mg, repeated 20 mg once daily, Cycle1 Day 22, fasted, N=3, read-out: tmax (median)): 2.17 h
Vd/F ([2]; human, plasma, oral, 20 mg, single 20 mg, Cycle1 Day 1, fasted, N = 1, read-out: Vss/F (Geometric Mean)): 81.9 L
Vd/F ([2]; human, plasma, oral, 20 mg, single 20 mg, Cycle1 Day 1, fasted, N = 1, read-out: Vss/F (Mean ± SD)): 81.9 L
AUC(0-t) ([2]; human, plasma, oral, 20 mg, single 20 mg, Cycle1 Day 1, fasted, N=3, read-out: AUC0-24 (Geometric Mean)): 924 ng·h/mL
Cmax ([2]; human, plasma, oral, 20 mg, single 20 mg, Cycle1 Day 1, fasted, N=3, read-out: Cmax (Geometric Mean)): 183 ng/mL
Tmax ([2]; human, plasma, oral, 20 mg, single 20 mg, Cycle1 Day 1, fasted, N=3, read-out: tmax (median)): 1.52 h
AUC(0-t) ([2]; human, plasma, oral, 150 mg, repeated 150 mg once daily, Cycle1 Day 22, fasted, N=2, read-out: AUC0-24 (Geometric Mean)): 15000 ng·h/mL
AUC(0-t) ([2]; human, plasma, oral, 150 mg, repeated 150 mg once daily, Cycle1 Day 22, fasted, N=2, read-out: AUC0-24 (Mean ± SD)): 15900 ng·h/mL
Cmax ([2]; human, plasma, oral, 150 mg, repeated 150 mg once daily, Cycle1 Day 22, fasted, N=2, read-out: Cmax (Geometric Mean)): 2230 ng/mL
Cmax ([2]; human, plasma, oral, 150 mg, repeated 150 mg once daily, Cycle1 Day 22, fasted, N=2, read-out: Cmax (Mean ± SD)): 2390 ng/mL
Tmax ([2]; human, plasma, oral, 150 mg, repeated 150 mg once daily, Cycle1 Day 22, fasted, N=2, read-out: tmax (median)): 2.97 h
Vd/F ([2]; human, plasma, oral, 150 mg, single 150 mg, Cycle1 Day 1, fasted, N = 1, read-out: Vss/F (Geometric Mean)): 61.5 L
Vd/F ([2]; human, plasma, oral, 150 mg, single 150 mg, Cycle1 Day 1, fasted, N = 1, read-out: Vss/F (Mean ± SD)): 61.5 L
AUC(0-t) ([2]; human, plasma, oral, 150 mg, single 150 mg, Cycle1 Day 1, fasted, N=3, read-out: AUC0-24 (Geometric Mean)): 6860 ng·h/mL
AUC(0-t) ([2]; human, plasma, oral, 150 mg, single 150 mg, Cycle1 Day 1, fasted, N=3, read-out: AUC0-24 (Mean ± SD)): 9140 ± 8730 ng·h/mL
Cmax ([2]; human, plasma, oral, 150 mg, single 150 mg, Cycle1 Day 1, fasted, N=3, read-out: Cmax (Geometric Mean)): 884 ng/mL
Tmax ([2]; human, plasma, oral, 150 mg, single 150 mg, Cycle1 Day 1, fasted, N=3, read-out: tmax (median)): 3 h
AUC(0-t) ([2]; human, plasma, oral, 200 mg, repeated 200 mg once daily, Cycle1 Day 22, fasted, N=3, read-out: AUC0-24 (Geometric Mean)): 13400 ng·h/mL
AUC(0-t) ([2]; human, plasma, oral, 200 mg, repeated 200 mg once daily, Cycle1 Day 22, fasted, N=3, read-out: AUC0-24 (Mean ± SD)): 13900 ± 4380 ng·h/mL
Cmax ([2]; human, plasma, oral, 200 mg, repeated 200 mg once daily, Cycle1 Day 22, fasted, N=3, read-out: Cmax (Geometric Mean)): 2030 ng/mL
Cmax ([2]; human, plasma, oral, 200 mg, repeated 200 mg once daily, Cycle1 Day 22, fasted, N=3, read-out: Cmax (Mean ± SD)): 2150 ± 873 ng/mL
Tmax ([2]; human, plasma, oral, 200 mg, repeated 200 mg once daily, Cycle1 Day 22, fasted, N=3, read-out: tmax (median)): 2.07 h
AUC(0-t) ([2]; human, plasma, oral, 200 mg, single 200 mg, Cycle1 Day 1, fasted, N=4, read-out: AUC0-24 (Geometric Mean)): 9760 ng·h/mL
AUC(0-t) ([2]; human, plasma, oral, 200 mg, single 200 mg, Cycle1 Day 1, fasted, N=4, read-out: AUC0-24 (Mean ± SD)): 13600 ± 13800 ng·h/mL
Cmax ([2]; human, plasma, oral, 200 mg, single 200 mg, Cycle1 Day 1, fasted, N=4, read-out: Cmax (Geometric Mean)): 1340 ng/mL
Vd/F ([2]; human, plasma, oral, 200 mg, single 200 mg, Cycle1 Day 1, fasted, N=4, read-out: Vss/F (Geometric Mean)): 173 L
Vd/F ([2]; human, plasma, oral, 200 mg, single 200 mg, Cycle1 Day 1, fasted, N=4, read-out: Vss/F (Mean ± SD)): 213 ± 127 L
Tmax ([2]; human, plasma, oral, 200 mg, single 200 mg, Cycle1 Day 1, fasted, N=4, read-out: tmax (median)): 2.98 h
AUC(0-t) ([2]; human, plasma, oral, 400 mg, repeated 400 mg once daily, Cycle1 Day 22, fasted, N=3, read-out: AUC0-24 (Geometric Mean)): 29500 ng·h/mL
AUC(0-t) ([2]; human, plasma, oral, 400 mg, repeated 400 mg once daily, Cycle1 Day 22, fasted, N=3, read-out: AUC0-24 (Mean ± SD)): 36800 ± 23500 ng·h/mL
Cmax ([2]; human, plasma, oral, 400 mg, repeated 400 mg once daily, Cycle1 Day 22, fasted, N=3, read-out: Cmax (Geometric Mean)): 3370 ng/mL
Cmax ([2]; human, plasma, oral, 400 mg, repeated 400 mg once daily, Cycle1 Day 22, fasted, N=3, read-out: Cmax (Mean ± SD)): 4020 ± 2460 ng/mL
Tmax ([2]; human, plasma, oral, 400 mg, repeated 400 mg once daily, Cycle1 Day 22, fasted, N=3, read-out: tmax (median)): 2.95 h
